From BigSolDB 2.1

O=C(O)CC(S)C(=O)O (stereo not drawn)
solubility (mole fraction)
Conditions | in acetone | in acetonitrile | in ethanol | in ethyl acetate | in isopropanol | in methanol | in n-butanol
278.15 K | 0.133 | 0.0114 | 0.138 | 0.0454 | 0.1 | 0.117 | 0.0909
283.15 K | 0.142 | 0.0159 | 0.154 | 0.0482 | 0.112 | 0.136 | 0.105
288.15 K | 0.149 | 0.0212 | 0.169 | 0.0515 | 0.126 | 0.157 | 0.118
293.15 K | 0.159 | 0.0296 | 0.186 | 0.0547 | 0.141 | 0.178 | 0.134
298.15 K | 0.168 | 0.0392 | 0.205 | 0.0595 | 0.156 | 0.203 | 0.153
303.15 K | 0.178 | 0.0513 | 0.224 | 0.0634 | 0.174 | 0.228 | 0.172
308.15 K | 0.19 | 0.0656 | 0.244 | 0.068 | 0.192 | 0.256 | 0.192
313.15 K | 0.202 | 0.0853 | 0.265 | 0.0732 | 0.212 | 0.285 | 0.213
318.15 K | 0.213 | 0.108 | 0.287 | 0.0787 | 0.233 | 0.314 | 0.236
323.15 K | 0.226 | 0.135 | 0.31 | 0.0849 | 0.256 | 0.345 | 0.261
328.15 K | 0.24 | 0.168 | 0.335 | 0.0915 | 0.28 | 0.379 | 0.286
333.15 K | – | 0.206 | 0.361 | 0.0991 | 0.305 | 0.412 | 0.313
